One assay concerns the target Asp-2 (Homo sapiens, UniProt P56817). As to the kind of experiment: Asp-2 Inhibitory Assay. In kind it is biochemical. The settings on record: Assay (I), FAM-SEVNLDAEFK-TAMRA substrate, pH 4.5; read-out: inhibition (Asp-2). As for the experimental part: (I) Asp-2 Inhibitory Assay
This is prepared by diluting 2 ml of a 2 mM DMSO solution of the substrate into 400 ml of buffer (100 mM Sodium acetate pH=4.5, 1 l Milli-Q water, 0.06% Triton X-100 (0.5 ml/l), pH adjusted to 4.5 using glacial acetic acid). […] This is prepared by diluting 16 ml of a 500 nM enzyme solution into 384 ml of buffer (prepared as above).
Blank wells (enzyme solution replaced by buffer) are included as controls on each plate.
Chain of Asp-2 (P56817 46-501): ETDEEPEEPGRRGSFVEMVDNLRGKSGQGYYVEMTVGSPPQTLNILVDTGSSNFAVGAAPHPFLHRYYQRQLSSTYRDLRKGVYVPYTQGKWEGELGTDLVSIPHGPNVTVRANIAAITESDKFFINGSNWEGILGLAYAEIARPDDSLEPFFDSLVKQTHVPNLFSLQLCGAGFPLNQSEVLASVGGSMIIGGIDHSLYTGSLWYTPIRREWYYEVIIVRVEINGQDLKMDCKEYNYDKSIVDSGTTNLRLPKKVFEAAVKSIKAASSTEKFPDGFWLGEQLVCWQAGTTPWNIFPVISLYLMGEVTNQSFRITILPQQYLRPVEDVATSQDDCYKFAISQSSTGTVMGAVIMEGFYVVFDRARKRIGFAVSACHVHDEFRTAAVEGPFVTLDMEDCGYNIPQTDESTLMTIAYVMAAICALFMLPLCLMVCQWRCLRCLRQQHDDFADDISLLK
Consider `O=C(NC(Cc1ccccc1)C(O)CNCc1cccc(C(F)(F)F)c1)c1cc(C2CCCC2)cc(N2CCCC2=O)c1` (centres unmarked) [Example E22, N-[1-Benzyl-2-hydroxy-3-(3-trifluoromethylbenzylamino)propyl]-3-cyclopentyl-5-(2-oxopyrrolidin-1-yl)benzamide], for which the IC50 was in the range of 1 to 50 nM.
As for `CCCCNc1cc(C(=O)N[C@@H](Cc2ccccc2)[C@H](O)CN[C@@H](C)C(=O)NC2CCCCC2)cc(N2CCCC2=O)c1` [Example E56, N-[(1S,2R)-1-Benzyl-3-((S)-1-cyclohexylcarbamoylethylamino)-2-hydroxypropyl]-3-butylamino-5-(2-oxopyrrolidin-1-yl)benzamide], the IC50 was in the range of 1 to 50 nM.
The same measure, in the same setting: next, `CCCC[C@H](NC[C@@H](O)[C@H](Cc1ccccc1)NC(=O)c1cc(OC(C)C)cc(N2CCCC2=O)c1)C(=O)NCC(C)C` [Example E179, N-[(1S,2R)-1-Benzyl-2-hydroxy-3-((S)-1-isobutylcarbamoyl-pentylamino)-propyl]-3-isopropoxy-5-(2-oxopyrrolidin-1-yl)benzamide]: 1 to 50 nM; `CC(C)CCCC(C)NC[C@@H](O)[C@H](Cc1ccccc1)NC(=O)c1cc(NC(C)C)cc(N2CCCC2=O)c1` (stereo partly drawn) [Example E60, N-[(1S,2R)-1-Benzyl-3-(1,5-dimethylhexylamino)-2-hydroxypropyl]-3-isopropylamino-5-(2-oxopyrrolidin-1-yl)benzamide]: 1 to 50 nM.
Still for that read-out and setting: for `CCC(CC)Nc1cc(C(=O)N[C@@H](Cc2ccccc2)[C@H](O)CN[C@@H](C)C(=O)NC2CCCCC2)cc(N2CCCC2=O)c1` [Example E55, N-[(1S,2R)-1-Benzyl-3-((S)-1-cyclohexylcarbamoylethylamino)-2-hydroxypropyl]-3-(1-ethylpropylamino)-5-(2-oxopyrrolidin-1-yl)benzamide] the value was 1 to 50 nM.
Still for that read-out and setting: next, `C[C@H](NC[C@@H](O)[C@H](Cc1ccccc1)NC(=O)c1cc(C2CCCC2)cc(N2CCCC2=O)c1)C(=O)NC1CCCCC1` [Example E12, N-[(1S,2R)-1-Benzyl-3-((S)-1-cyclohexylcarbamoylethylamino)-2-hydroxypropyl]-3-cyclopentyl-5-(2-oxopyrrolidin-1-yl)benzamide]: 1 to 50 nM.
`CCCCCNc1cc(C(=O)N[C@@H](Cc2ccccc2)[C@H](O)CN[C@@H](C)C(=O)NC2CCCCC2)cc(N2CCCC2=O)c1` [Example E54, N-[(1S,2R)-1-Benzyl-3-((S)-1-cyclohexylcarbamoylethylamino)-2-hydroxypropyl]-3-(2-oxopyrrolidin-1-yl)-5-pentylaminobenzamide]: the IC50 lay within 1 to 50 nM.

Staying with this assay, now noted: inhibition (Asp-2), Assay (I), FAM-SEVNLDAEFK-TAMRA substrate, pH 4.5.
As for `CCNc1cc(C(=O)N[C@@H](Cc2ccccc2)[C@H](O)CNCc2cccc(OC(F)(F)F)c2)cc(N2CCCC2=O)c1` [Example E86, N-[(1S,2R)-1-Benzyl-2-hydroxy-3-(3-trifluoromethoxybenzylamino)-propyl]-3-ethylamino-5-(2-oxopyrrolidin-1-yl)benzamide], the IC50 was 1 to 50 nM.

The record behind these values is patent US7253198B2, “Hydroxyethylamine derivatives for the treatment of Alzheimer's disease” (Glaxo Group Limited, priority 2002, dated 2007).
